# Data from article PMC10444810, “Induction of open-form bile canaliculus formation by hepatocytes for evaluation of biliary drug excretion” (Communications Biology, 2023).
# Where “and” joins values, the source holds several entries; their conditions need not be identical. Equal entries are not always repeated.
# Test system: icHep (PXB-cells on claudin-1, -2, -3, -9 coated Transwell permeable support)
# Test: icHep permeation assay (sinusoidal to bile side) to estimate drug biliary excretion clearance
# Conditions: for In vitro CLbile, app: single replicates; for Predicted in vivo CLbile, int, Mean: mean of 3; for In vitro CLbile, int / Predicted in vivo CLbile, int: single replicate; for Biliary excretion clearance, in vivo, predicted, CLbile, int: scaled up from in vitro CLbile,int, mean ± S.D., n = 3
# [1] = Control, block with icHep (HUM181001B)
# [2] = Control, block with icHep (JFC)
Compound,"In vitro CLbile, app, Mean [1] [ul/min/106 cells]","In vitro CLbile, app [1]","In vitro CLbile, app, Mean [2] [ul/min/106 cells]","In vitro CLbile, app [2]","Predicted in vivo CLbile, int, Mean (icHep (HUM181001B)) [mL/min]","In vitro CLbile, int (icHep (HUM181001B))","Predicted in vivo CLbile, int (icHep (HUM181001B))","In vitro CLbile, app, Mean (icHep (HUM181001B)) [ul/min/106 cells]","Biliary excretion clearance, in vivo, predicted, CLbile, int (icHep (HUM181001B)) [mL/min]","In vitro CLbile, app (icHep (HUM181001B))","Predicted in vivo CLbile, int, Mean (icHep (JFC)) [mL/min]","In vitro CLbile, int (icHep (JFC))","Predicted in vivo CLbile, int (icHep (JFC))","In vitro CLbile, app, Mean (icHep (JFC)) [ul/min/106 cells]","Biliary excretion clearance, in vivo, predicted, CLbile, int (icHep (JFC)) [mL/min]","In vitro CLbile, app (icHep (JFC))"
"CN/C(=N/CCSCc1nc[nH]c1C)NC#N [Cimetidine, cimetidine]",0.585,0.596 ul/min/106 cells and 0.590 ul/min/106 cells and 0.570 ul/min/106 cells,1.14,1.06 ul/min/106 cells and 1.22 ul/min/106 cells and 1.15 ul/min/106 cells,97.8,0.316 ul/min/106 cells and 0.409 ul/min/106 cells and 0.633 ul/min/106 cells,68.3 mL/min and 88.4 mL/min and 137 mL/min,1.04,97.8 ± 35.1,0.913 ul/min/106 cells and 1.00 ul/min/106 cells and 1.20 ul/min/106 cells,188,0.810 ul/min/106 cells and 1.04 ul/min/106 cells and 0.756 ul/min/106 cells,175 mL/min and 225 mL/min and 163 mL/min,2.01,188 ± 32.8,1.87 ul/min/106 cells and 2.26 ul/min/106 cells and 1.90 ul/min/106 cells
"C[C@H]1O[C@@H](O[C@H]2[C@@H](O)C[C@H](O[C@H]3[C@@H](O)C[C@H](O[C@H]4CC[C@@]5(C)[C@H](CC[C@@H]6[C@@H]5C[C@@H](O)[C@]5(C)[C@@H](C7=CC(=O)OC7)CC[C@]65O)C4)O[C@@H]3C)O[C@@H]2C)C[C@H](O)[C@@H]1O [Digoxin, digoxin]",–,–,–,–,–,–,242 mL/min and 175 mL/min,–,–,–,–,–,71.3 mL/min and 159 mL/min and 72.7 mL/min,–,–,–
"CC[C@H]1OC(=O)[C@H](C)[C@@H](O[C@H]2C[C@@](C)(OC)[C@@H](O)[C@H](C)O2)[C@H](C)[C@@H](O[C@@H]2O[C@H](C)C[C@H](N(C)C)[C@H]2O)[C@](C)(O)C[C@@H](C)C(=O)[C@H](C)[C@@H](O)[C@]1(C)O [Erythromycin, erythromycin]",0.624,0.611 ul/min/106 cells and 0.632 ul/min/106 cells and 0.630 ul/min/106 cells,–,1.41 ul/min/106 cells and 1.36 ul/min/106 cells and 1.35 ul/min/106 cells,171,0.865 ul/min/106 cells and 0.795 ul/min/106 cells and 0.720 ul/min/106 cells,187 mL/min and 172 mL/min and 155 mL/min,–,171 ± 15.6,1.48 ul/min/106 cells and 1.43 ul/min/106 cells and 1.35 ul/min/106 cells,158,0.650 ul/min/106 cells and 0.762 ul/min/106 cells and 0.784 ul/min/106 cells,140 mL/min and 165 mL/min and 169 mL/min,–,158 ± 15.6,2.06 ul/min/106 cells and 2.13 ul/min/106 cells
"CN(Cc1cnc2nc(N)nc(N)c2n1)c1ccc(C(=O)N[C@@H](CCC(=O)O)C(=O)O)cc1 [Methotrexate, methotrexate]",1.51,1.65 ul/min/106 cells and 1.43 ul/min/106 cells and 1.44 ul/min/106 cells,1.37,1.41 ul/min/106 cells and 1.36 ul/min/106 cells and 1.35 ul/min/106 cells,157,0.425 ul/min/106 cells and 0.942 ul/min/106 cells and 0.808 ul/min/106 cells,91.9 mL/min and 203 mL/min and 175 mL/min,2.23,157 ± 57.9,2.08 ul/min/106 cells and 2.37 ul/min/106 cells and 2.25 ul/min/106 cells,241,1.21 ul/min/106 cells and 1.27 ul/min/106 cells and 0.865 ul/min/106 cells,261 mL/min and 274 mL/min and 187 mL/min,2.11,241 ± 46.9,2.06 ul/min/106 cells and 2.12 ul/min/106 cells and 2.13 ul/min/106 cells
"CCOc1ccc2ccccc2c1C(=O)N[C@@H]1C(=O)N2[C@@H]1SC(C)(C)[C@@H]2C(=O)O [Nafcillin, nafcillin]",0.838,0.848 ul/min/106 cells and 0.836 ul/min/106 cells and 0.830 ul/min/106 cells,1.10,0.724 ul/min/106 cells and 1.28 ul/min/106 cells and 1.30 ul/min/106 cells,232,0.964 ul/min/106 cells and 1.03 ul/min/106 cells and 1.23 ul/min/106 cells,208 mL/min and 222 mL/min and 266 mL/min,1.91,232 ± 30.1,1.81 ul/min/106 cells and 1.86 ul/min/106 cells and 2.06 ul/min/106 cells,479,3.37 ul/min/106 cells and 1.82 ul/min/106 cells and 1.47 ul/min/106 cells,727 mL/min and 394 mL/min and 316 mL/min,3.32,479 ± 218,4.09 ul/min/106 cells and 3.10 ul/min/106 cells and 2.77 ul/min/106 cells
"CC[C@]1(O)C[C@H]2CN(CCc3c([nH]c4ccccc34)[C@@](C(=O)OC)(c3cc4c(cc3OC)N(C=O)[C@H]3[C@@](O)(C(=O)OC)[C@H](OC(C)=O)[C@]5(CC)C=CCN6CC[C@]43[C@@H]65)C2)C1 [Vincristine, vincristine]",0.159,0.124 ul/min/106 cells and 0.154 ul/min/106 cells and 0.199 ul/min/106 cells,0.205,0.186 ul/min/106 cells and 0.220 ul/min/106 cells and 0.208 ul/min/106 cells,27.6,0.176 ul/min/106 cells and 0.118 ul/min/106 cells and 0.0898 ul/min/106 cells,38.0 mL/min and 25.6 mL/min and 19.4 mL/min,0.287,27.6 ± 9.46,0.300 ul/min/106 cells and 0.273 ul/min/106 cells and 0.289 ul/min/106 cells,37.3,0.159 ul/min/106 cells and 0.230 ul/min/106 cells and 0.129 ul/min/106 cells,34.3 mL/min and 49.7 mL/min and 27.8 mL/min,0.377,37.3 ± 11.2,0.345 ul/min/106 cells and 0.450 ul/min/106 cells and 0.337 ul/min/106 cells
